SMILES strings stand for the structures. A value given as a limit tells only on which side of the number the result lay.

Data on 30 compounds can be found in BindingDB's records for doi:10.7270/Q2W957K6 (Pcmd, 2008).

In the experiment the target is Coagulation factor XI (Homo sapiens, UniProt P03951). The experiment can be described thus: human FXIa inhibitor potency, dose response, biochemical (AID 679).
Coagulation factor XI, sequence (P03951 19-387 limits assumed): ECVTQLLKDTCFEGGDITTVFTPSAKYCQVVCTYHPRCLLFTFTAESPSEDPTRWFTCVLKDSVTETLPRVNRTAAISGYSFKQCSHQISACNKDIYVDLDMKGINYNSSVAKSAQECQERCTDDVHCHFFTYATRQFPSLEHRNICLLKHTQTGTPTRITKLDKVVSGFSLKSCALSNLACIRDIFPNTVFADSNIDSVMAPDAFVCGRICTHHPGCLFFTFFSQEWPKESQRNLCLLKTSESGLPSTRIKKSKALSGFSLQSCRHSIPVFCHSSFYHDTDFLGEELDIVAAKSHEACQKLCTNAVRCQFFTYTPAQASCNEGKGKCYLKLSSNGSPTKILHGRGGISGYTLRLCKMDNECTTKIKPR
Coagulation factor XI, sequence (P03951 388-625 limits assumed): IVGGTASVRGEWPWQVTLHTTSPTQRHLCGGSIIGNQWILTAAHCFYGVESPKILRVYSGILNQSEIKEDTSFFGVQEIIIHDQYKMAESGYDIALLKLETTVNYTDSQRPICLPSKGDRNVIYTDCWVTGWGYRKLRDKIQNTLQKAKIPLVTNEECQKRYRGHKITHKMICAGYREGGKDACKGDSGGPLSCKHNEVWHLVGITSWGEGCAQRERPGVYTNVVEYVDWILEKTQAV
For orientation: IC50 means the concentration needed to halve the response being measured. Low values mean greater potency in that assay, high ones weaker potency in that assay. Regarding `Cc1ccc(NS(=O)(=O)c2ccc(OCC(=O)N3CCOCC3)cc2)cc1` [N-(4-methylphenyl)-4-(2-morpholin-4-yl-2-oxidanylidene-ethoxy)benzenesulfonamide], the half-maximal inhibitory concentration (IC50) was > 50 µM. Regarding `CCC1CC2CC(NC(C)=O)C1C2` (stereo not given) [N-(5-ethyl-3-bicyclo[2.2.1]heptanyl)ethanamide], the 50% inhibitory concentration (IC50) came to 0.588 µM. For the compound `Cc1ccc(N(C(=O)c2ccccn2)C2(C(=O)NC3CCCC3)CCCCC2)cc1` [N-[1-(cyclopentylcarbamoyl)cyclohexyl]-N-(4-methylphenyl)pyridine-2-carboxamide], the IC50 is > 50 µM. For `Cc1ccc(-c2csc(N3CCC(NS(=O)(=O)c4ccc5c(c4)OCCO5)CC3)n2)cc1` [N-[1-[4-(4-methylphenyl)-1,3-thiazol-2-yl]piperidin-4-yl]-2,3-dihydro-1,4-benzodioxine-6-sulfonamide] the value was > 50 µM; for `COc1ccc(OCC(=O)Nc2cc(-c3nn(C)c(=O)c4ccccc34)ccc2OC)cc1` [N-[2-Methoxy-5-(3-methyl-4-oxo-3,4-dihydro-phthalazin-1-yl)-phenyl]-2-(4-methoxy-phenoxy)-acetamide], > 50 µM; for `CCOC(=O)N=S(=O)(Oc1ccc([N+](=O)[O-])cc1)c1ccccc1` (stereo not given) [N-[(4-nitrophenoxy)-oxo-phenyl--sulfanylidene]carbamic acid ethyl ester], > 50 µM. With `CN(CCOc1ccccc1)c1ccc(S(=O)(=O)N2CCCCC2)cn1` [N-methyl-N-(2-phenoxyethyl)-5-piperidin-1-ylsulfonylpyridin-2-amine], the 50% inhibitory concentration (IC50) is > 50 µM.

`Cc1cccc(NC(=O)c2snc3c(=O)[nH]cnc23)c1` [SMR000000702]: the half-inhibitory concentration (IC50) is > 50 µM. Regarding `CCCN(CCC)C(C(=O)Nc1cccc(OC)c1)c1ccccc1` (stereo not given) [SMR000064514], the IC50 was > 50 µM. Regarding `CCCC(=O)n1nc(-c2ccccc2)nc1SC` [SMR000113998], the half-inhibitory concentration (IC50) was > 50 µM.

Turning to `O=C(Oc1cccc(-n2cnnn2)c1)c1ccco1` [SMR000117840], inhibition was half-maximal at 4.06 µM (IC50). In the case of `O=C(c1cccc2ccccc12)n1nnc2ccccc21` [SMR000118701], the IC50 was > 50 µM.

Take `COC(=O)C(Cc1c[nH]c2ccccc12)NC(C)=O` (stereo not given) [SMR000121078]: the 50% inhibitory concentration (IC50) amounted to 6.69 µM. The value for `COCC/N=C1\Sc2nc3c(C)cccc3cc2CN1Cc1ccco1` [SMR000122349] was 0.745 µM; that for `COc1cc(C=c2sc3n(c2=O)CCCN=3)ccc1O` [SMR000126740] was > 50 µM; that for `O=C(c1ccc(F)cc1)N1CCN(C(=O)c2cccnc2)CC1` [SMR000140978] was > 50 µM. Regarding `COC(=O)c1sc(NC(=O)CC(C)C)c(C(=O)OC)c1C` [SMR000141040], the IC50 was > 50 µM. The value for `Cc1cc(C)n2nc(C(=O)Nc3ccc4c(c3)OCO4)cc2n1` [SMR000144727] was > 50 µM. `CCc1c(O)nc(SCC(=O)NC(C)(C)C)n(-c2ccccc2)c1=O` [SMR000147407]: the IC50 was > 50 µM.

In the case of `N#Cc1c(N)nc2c(c1N)=C(N)SC1=NC(=O)CC(c3ccccc3Cl)C=21` (stereo not given) [SMR000147835], the half-maximal inhibitory concentration (IC50) was > 50 µM. Take `CNC(=O)COC(=O)c1[nH]c(C)c(C(C)=O)c1C` [SMR000152883]: the IC50 was > 50 µM.

`COc1ccccc1-n1cnnc1SCC(=O)Nc1nc(C)c(Cl)cc1Cl` [SMR000153344] came in with a concentration for half-maximal inhibition (IC50) of 10.2 µM.

Consider `CCn1c(SCC(=O)c2[nH]c(C)c(C(C)=O)c2C)nnc1-c1ccccc1` [SMR000153346], for which the concentration for half-maximal inhibition (IC50) stood at 7.44 µM. Regarding `Cc1cnc(C(=O)OCC(=O)NCc2ccccc2)cn1` [[2-(benzylamino)-2-oxoethyl] 5-methylpyrazine-2-carboxylate], the IC50 was > 50 µM. For `Cc1cc(NC(=O)COC(=O)c2c(C)nn(Cc3ccccc3)c2C)no1` [[2-[(5-methyl-1,2-oxazol-3-yl)amino]-2-oxoethyl] 1-benzyl-3,5-dimethylpyrazole-4-carboxylate] the value was > 50 µM; for `COC(=O)CSc1nnc(C)n1-c1cccc(OC)c1` [[4-(3-Methoxy-phenyl)-5-methyl-4H-[1,2,4]triazol-3-ylsulfanyl]-acetic acid methyl ester], 2.36 µM; for `CCOC(=O)c1cc2c(ccn2C)n1CC(=O)N1CCC(C)CC1` [ethyl 1-methyl-4-[2-(4-methylpiperidin-1-yl)-2-oxoethyl]pyrrolo[3,2-b]pyrrole-5-carboxylate], 0.744 µM. As to `CCOC(=O)c1c(C)nc2c(c1C)c(=O)oc1ccccc12` [ethyl 2,4-dimethyl-5-oxochromeno[4,3-b]pyridine-3-carboxylate], the 50% inhibitory concentration (IC50) was > 50 µM. The value for `COC(=O)c1ccc(NC(=O)Cc2c(O)n(-c3ccc(C)cc3)c(=O)n2CC(C)C)cc1` [methyl 4-[2-[1-(4-methylphenyl)-3-(2-methylpropyl)-2,5-bis(oxidanylidene)imidazolidin-4-yl]ethanoylamino]benzoate] was > 50 µM; that for `COC(=O)c1[nH]c2ccc(Br)cc2c1NC(=O)CN1CCCc2ccccc21` [methyl 5-bromanyl-3-[2-(3,4-dihydro-2H-quinolin-1-yl)ethanoylamino]-1H-indole-2-carboxylate] was > 50 µM.
